# Data reported in patent publication EP2246037A2, “Anti-aging and whitening properties of quercetin, 18a-glycyrrhetinic acid, hederagenin and its derivatives” (Korres S.A. Natural Products, priority 2009, dated 2010).
# Tests used:
# [1] = test system: proteasome subunits (β5, α7); experiment: Immunoblot of proteasome subunit levels in treated cells; format: cell-based, human; settings: 24 h treatment
# [2] = test system: HFL-1 human diploid fibroblasts; experiment: Lifespan (cumulative population doublings) and morphology of fibroblasts under continuous treatment; format: cell-based; set-up: key to cpd: cumulative population doublings: CPD=Σ LOG[Nfinal/Ninitial]/LOG[2]; settings: for appearance of the senescent phenotype: summary of sections 1 and 2
# Protocol: (§1) The steps, methods and results that were obtained regarding the anti-aging properties of the examined substances are the following: • 1) Study of the lifespan of human diploid fibroblasts in vitro in the presence of the substances. • 1.1. HFL-1 human diploid fibroblasts (HDFs) were used in in vitro conditions (growth at 37°C, 5% CO2 and 95% humidity). • 1.2. The cells were maintained in Dulbecco's modified Eagle's medium (DMEM ®; Invitrogen Life Technologies Inc.) supplemented with 10% (v/v) fetal calf serum, 100 Units/ml penicillin, 100 µg/ml strepromycin, 2 mM glutamine and 1% (v/v) non-essential amino acids (complete medium). • 1.3. The cells were constantly cultured in culture medium supplemented with the substances [final concentration for quercetin (QUER), 18α-glycyrrhetinic acid (18α GA), and hederagenin (HED): 2 µg/ml and for quercetin caprylate (QU-CAP) three concentrations were applied: 0.5, 2 and 5 µg/ml]. Quercetin, 18α-glycyrrhetinic acid and hederagenin were diluted in DMSO (dimethyl sulfoxide) whereas quercetin caprylate was diluted in caprilic/capric triglycerides (CAP). Therefore, the control cultures were incubated in medium supplemented with 0.1% DMSO or 0.1% CAP. • 1.4. The cells were replenished with fresh media supplemented with the substances or the diluents every 24 h and their numbers were examined using a Coulter Z2 ® counter (Coulter Corporation) until they reached senescence (approximately after 13 weeks). The cumulative population doublings performed by each culture were calculated using the following formula: CPD=Σ[PD] where PD=LOG[Nfinal/Ninitial]/LOG[2], where N final represents the number of cells that were measured when each culture reached confluence and N initial represents the number of cells that was initially seeded. • 1.5. Photographs of the cells maintained in cell culture and treated with the various substances for the same time period were taken. • 1.6. […] More specifically, cells that were incubated with quercetin caprylate gave up to 2.8% more population doublings as compared to the population doublings performed by the relative control cultures. Cells that were incubated with the other substances gave up to 2.9% more population doublings as compared to their relative control cultures. • 1.7. […] Cells that were treated with either of the tested substances maintained the young morphology for longer as compared to the control cultures (DMSO-treated and CAP-treated). […] HFL-1 HDFs were cultured as described in 1.1-1.4 for 10 consecutive weeks and were then subjected to β-galactosidase activity staining. • 1.2. Briefly, 10^5 cells from each culture were seeded in 6-well plates. After 24 h cells were washed with PBS (phosphate buffered saline), fixed in 0.2% glutaraldehyde and 2% formaldehyde for 5 min, washed again with PBS, and finally stained for 24 h at 37 °C in the absence of CO2, in staining solution (150 mM NaCl, 2 mM MgCl2, 5 mM K3Fe(CN)6, 40 mM citric acid, and 12 mM sodium phosphate, pH 6.0) containing 1 mg/ml 5-bromo-4-chloro-3-indolyl-β-D-galactoside. Photographs were then taken. • 1.3. […] HFL-1 HDFs that have senesced in vitro were used (growth at 37°C, 5% CO2 and 95% humidity). More specifically, middle aged HFL-1 HDFs (cpd 59) and terminally senescent HFL-1 HDFs (cpd 65) that had senesced in the absence of any substance were used. • 3.2. The cells were seeded and maintained in complete medium (see 1.2). Culture medium supplemented with the substances [final concentration for quercetin (QUER), 18α-glycyrrhetinic acid (18α GA), and hederagenin (HED): 2 µg/ml and for quercetin caprylate (QU-CAP) three concentrations were applied: 0.5, 2 and 5 µg/ml] or the diluents (0.1% DMSO or 0.1% CAP) were added 24 h later. The cells were replenished with fresh media supplemented with the substances or the diluents every 24 h for 1 week and their numbers were then examined using a Coulter Z2 ® counter (Coulter Corporation). • 3.3. […]
# [3] = test system: middle aged and terminally senescent HFL-1 HDFs; experiment: Reversal of senescent phenotype: cell number, morphology and β-galactosidase staining after 1 week of treatment; format: cell-based, human; settings: for proliferation (number of cells) / β-galactosidase activity staining: 1 week; for morphology and proliferation: summary of section 3, middle aged or terminally senescent cells
# Protocol: as §1
# [4] = test system: Mouse melanocytes (B10F16 cell line); experiment: Cellular whitening of melanocytes (cell pellet photographs); format: cell-based; settings: 72 h
# Protocol: (§2) The steps, methods and results that were obtained regarding the whitening properties of the examined substances are the following: • A) Cellular whitening of melanocytes. • A.1. Mouse melanocytes (B10F16 cell line) were used in in vitro conditions (growth at 37°C, 5% CO2 and 95% humidity). • A.2. The cells were maintained in Dulbecco's modified Eagle's medium (DMEM®; Invitrogen Life Technologies Inc.) supplemented with 10% (v/v) fetal calf serum, 100 Units/ml penicillin, 100 µg/ml strepromycin, 2 mM glutamine and 1% (v/v) non-essential amino acids (complete medium). • A.3. 10^5 cells were seeded in petri dishes and the following day they were fed with medium supplemented with the substances [final concentration for all substances: 5 µg/ml and 10 µg/ml]. Quercetin (QUER), 18α-glycyrrhetinic acid (18α GA) and hederagenin (HED) were diluted in DMSO whereas quercetin caprylate was diluted in caprilic/capric triglycerides (CAP). Therefore, the control cultures were incubated in medium supplemented with 0.1% DMSO or 0.1% CAP. The media were replenished every 24 h and the cells were kept under these conditions constantly for 72 h. Cells were then collected and pelleted and the cell pellet was photographed. • A.4. […] The result was positively correlated to the concentration of quercetin used. • B) Detection of tyrosinase expression. • B.1. Mouse melanocytes were cultured as described in A.1.-A.3. After 72 h of treatment, the cells were collected, lysed and proteins were extracted and subjected to SDS-PAGE followed by immunoblot analysis against tyrosinase. Protein concentrations were determined using the Bradford method with BSA as a standard. • B.2.
# Photographs of pellet of melanocytes that were treated with the substances for 72 h.
# tyrosinase = experiment: Immunoblot of tyrosinase expression in melanocytes; format: cell-based, Mouse; settings: 72 h
# Protocol: as §2
# Immunoblot analysis of tyrosinase (70-80 kDa) in melanocytes treated with the substances or the relative diluents. Equal protein loading was verified by stripping the membrane and reprobing them with GAPDH (37 kDa) antibody (bottom panel).
# [5] = HFL-1 cells, 2 µg/ml, 13 consecutive weeks
# [6] = Table 2, 2 µg/ml, 55 days in culture
# [7] = middle aged cells (cpd 59), 2 µg/ml, quercetin caprylate 0.5, 2 and 5 µg/ml
# [8] = middle aged cells, 2 µg/ml, quercetin caprylate all three concentrations
# [9] = terminally senescent cells (cpd 65), 2 µg/ml, quercetin caprylate 2 and 5 µg/ml
# [10] = terminally senescent cells, quercetin 2 µg/ml, quercetin caprylate higher concentrations
# [11] = HFL-1 cells, 0, 5 µg/ml, 13 consecutive weeks
# [12] = HFL-1 cells, 5 µg/ml, 13 consecutive weeks
Compound,"protein levels of proteasome subunits (β5, α7) [1]","cpd [2, 5]","cpd, change versus relative diluent control [2, 5]","cpd [2, 6]",appearance of the senescent phenotype [2],"proliferation (number of cells) [3, 7]","β-galactosidase activity staining [3, 8]",morphology and proliferation [3],whitening of melanocyte pellet ([4]; lower concentration (5 µg/ml)),protein levels of tyrosinase (tyrosinase; 5 µg/ml and 10 µg/ml),"proliferation (number of cells) [3, 9]","β-galactosidase activity staining [3, 10]",other results
CC1(C)[C@@H](O)CC[C@]2(C)[C@H]3C(=O)C=C4[C@H]5C[C@@](C)(C(=O)O)CC[C@]5(C)CC[C@@]4(C)[C@]3(C)CC[C@@H]12 [18α-glycyrrhetinic acid],similar,67,+2.9%,65.02,delay in the appearance of the senescent phenotype,higher proliferation rates,less positive to β-galactosidase activity staining,regained a younger morphology and were induced to limited but significant proliferation,whitening potential,,,,
CC1(C)CC[C@]2(C(=O)O)CC[C@]3(C)C(=CC[C@@H]4[C@@]5(C)CC[C@H](O)[C@@](C)(CO)[C@@H]5CC[C@]43C)[C@@H]2C1 [Hederagenin],did not detect any up-regulation,65.4,+0.5%,65.06,,,,,whitening potential,,,,protein levels of tyrosinase (tyrosinase; high concentration (10 µg/ml)): reduced protein levels of tyrosinase
O=c1c(O)c(-c2ccc(O)c(O)c2)oc2cc(O)cc(O)c12 [Quercetin],elevated protein levels,57.24,,54.39,delay in the appearance of the senescent phenotype,higher proliferation rates,less positive to β-galactosidase activity staining,regained a younger morphology and were induced to limited but significant proliferation,,reduced protein levels of tyrosinase,limited but sigmificant cell proliferation,many of those cells were negative for β-gatactosidase activity,whitening effect compared to the other substances ([4]; 5 µg/ml and 10 µg/ml): notably more intensed; whitening of melanocyte pellet ([4]; both concentrations (5 µg/ml and 10 µg/ml)): whitening potential
quercetin caprylate,elevated protein levels,66.0,+2.8%,64.87,delay in the appearance of the senescent phenotype,higher proliferation rates,less positive to β-galactosidase activity staining,regained a younger morphology and were induced to limited but significant proliferation,,reduced protein levels of tyrosinase,limited but sigmificant cell proliferation,many of those cells were negative for β-gatactosidase activity,"cpd [2, 11]: 65.9; cpd, change versus relative diluent control [2, 11]: +2.6%; cpd [2, 12]: 65.4; cpd, change versus relative diluent control [2, 12]: +1.9%; cpd ([2]; Table 2, 0,5 µg/ml, 55 days in culture): 65.09; cpd ([2]; Table 2, 5 µg/ml, 55 days in culture): 63.96; more population doublings as compared to the relative control cultures ([2]; summary of Table 1, quercetin caprylate 0.5, 2 and 5 µg/ml, other substances 2 µg/ml): up to 2.8%"
